No end group written: not given here.
T1: ATAD2 bromodomain (BRD), residues 981–1108 (Homo sapiens, UniProt Q6PL18)
T1 construct: Residues 981–1108 encoding the 128 amino acid ATAD2 BRD were PCR amplified; GST (with PreScission Protease site) (N, cleaved yes); made in house; host or cells: E. coli Rosetta 2(DE3) pLysS (non-codon-optimized) or BL21(DE3) pLysS (codon-optimized)
T1 sequence (Q6PL18 981-1108): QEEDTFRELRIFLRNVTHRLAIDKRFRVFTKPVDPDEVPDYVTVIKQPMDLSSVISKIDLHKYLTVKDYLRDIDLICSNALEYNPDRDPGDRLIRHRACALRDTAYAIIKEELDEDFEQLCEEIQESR

T2: ATAD2 BRD mutant I1074A (Homo sapiens, UniProt Q6PL18, I1074A)
T2 construct: ATAD2 (residues 981–1108) with a N1064A/I1074A/I1074Y mutation; GST (with PreScission Protease site) (N, cleaved yes); made in house; host or cells: E. coli
T2 sequence (Q6PL18 981-1108 I1074A): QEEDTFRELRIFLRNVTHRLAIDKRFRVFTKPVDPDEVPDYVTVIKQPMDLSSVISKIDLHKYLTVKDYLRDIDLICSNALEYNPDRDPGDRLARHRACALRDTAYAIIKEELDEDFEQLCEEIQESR

T3: ATAD2 BRD mutant N1064A (Homo sapiens, UniProt Q6PL18, N1064A)
T3 construct: ATAD2 (residues 981–1108) with a N1064A/I1074A/I1074Y mutation; GST (with PreScission Protease site) (N, cleaved yes); made in house; host or cells: E. coli
T3 sequence (Q6PL18 981-1108 N1064A): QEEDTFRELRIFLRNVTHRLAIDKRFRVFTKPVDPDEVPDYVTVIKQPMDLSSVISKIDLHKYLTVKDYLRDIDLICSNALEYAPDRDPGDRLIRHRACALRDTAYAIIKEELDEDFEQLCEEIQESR

T4: ATAD2 BRD mutant I1074Y (Homo sapiens, UniProt Q6PL18, I1074Y)
T4 construct: ATAD2 (residues 981–1108) with a N1064A/I1074A/I1074Y mutation; GST (with PreScission Protease site) (N, cleaved yes); made in house; host or cells: E. coli
T4 sequence (Q6PL18 981-1108 I1074Y): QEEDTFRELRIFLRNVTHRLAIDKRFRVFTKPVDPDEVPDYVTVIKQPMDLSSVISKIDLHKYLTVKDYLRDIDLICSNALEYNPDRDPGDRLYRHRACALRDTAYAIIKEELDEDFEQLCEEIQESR

T5: ATAD2 bromodomain (residues 966–1112, C1101A) (Homo sapiens, UniProt Q6PL18, C1101A)
T5 construct: GST (with PreScission protease cleavage site) (N, cleaved yes); made in house; host or cells: E. coli BL21(DE3) pLysS
T5 sequence (Q6PL18 966-1112 C1101A): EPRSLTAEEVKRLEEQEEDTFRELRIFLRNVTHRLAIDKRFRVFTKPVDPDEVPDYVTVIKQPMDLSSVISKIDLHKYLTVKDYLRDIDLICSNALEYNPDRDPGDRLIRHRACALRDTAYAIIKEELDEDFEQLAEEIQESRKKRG

T6: histone H4K5acK8ac 1-10 (Homo sapiens, UniProt P62805)
T6 chain: MSGRGK(Ac)GGK(Ac)G

T7: histone H4K12ac 4-17 (Homo sapiens, UniProt P62805)
T7 chain: RGKGGKGLGK(Ac)GGAK


Assays:
[1] = target: T1, ATAD2 bromodomain (BRD), residues 981–1108; assay: ITC of histone peptides with the wild-type ATAD2 bromodomain; assay type: binding; conditions: for N-Value (stoichiometry of binding, peptide-to-bromodomain ratio) / ATAD2 BRD KD: ITC, 5 °C; for N-Value (stoichiometry of binding, peptide-to-bromodomain ratio): ATAD2 BRD (residues 981–1108, wild type), one set of sites model; for Kd: SD; for ATAD2 BRD KD: 150 mM NaH2PO4 and 150 mM NaCl, 5 mM peptide titrated into 0.2 mM ATAD2 BRD (residues 981–1108, wild type), 1:1 binding model, mean ± SD of three runs, no binding repeated in duplicate
Description: (§1) Purified protein was concentrated to a volume of 3 mL and dialyzed into ITC buffer (150 mM NaH2PO4 and 150 mM NaCl) for 48 h. ITC experiments with histone peptides were carried out at 5 °C using a MicroCal iTC200 (Malvern Panalytical, Westborough, MA, USA). […] The stirring speed was set at 750 RPM. After excluding the first injection, the ITC binding isotherms were integrated using a Marquandt nonlinear least-squares analysis according to a 1:1 binding model assuming a single set of identical binding sites with the Origin 7.0 program (OrginLab Corporation, Northampton, MA, USA). The raw data were corrected for non-specific heats of dilution determined by the magnitude of the peaks appearing after the system reaches complete saturation. The obtained heats of dilution were analyzed according to a one set of sites binding model and used to calculate binding affinities, N values, and thermodynamic values. […] The mean Kd was calculated from the average of the three runs, and the standard deviation was calculated from the mean.

[2] = target: T2, ATAD2 BRD mutant I1074A; assay: ITC of histone peptides with the ATAD2 bromodomain mutant I1074A; assay type: binding; conditions: ATAD2 (residues 981–1108) I1074A mutant bromodomain
Description: as §1

[3] = target: T3, ATAD2 BRD mutant N1064A; assay: ITC of histone peptides with the ATAD2 bromodomain mutant N1064A; assay type: binding; conditions: ATAD2 (residues 981–1108) N1064A mutant bromodomain
Description: as §1

[4] = target: T4, ATAD2 BRD mutant I1074Y; assay: ITC of histone peptides with the ATAD2 bromodomain mutant I1074Y; assay type: binding; conditions: ATAD2 (residues 981–1108) I1074Y mutant bromodomain
Description: as §1

[5] = target: histone H4K8ac (Homo sapiens) (UniProt P62805); assay: ITC; conditions: cited from earlier work
[6] = target: histone H4K5ac (Homo sapiens) (UniProt P62805); assay: ITC; conditions: cited from earlier work
[7] = target: T5, ATAD2 bromodomain (residues 966–1112, C1101A); assay: ITC of histone H4 peptides with the longer ATAD2 bromodomain construct; assay type: binding; conditions: for N-Value (stoichiometry of binding): ITC, 5 °C, ATAD2 bromodomain residues 966–1112, C1101A; for Kd: SD, read-out: KD from ITC
Description: as §1

[8] = target: T6, histone H4K5acK8ac 1-10; assay: ITC
[9] = target: T7, histone H4K12ac 4-17; assay: ITC

N-Value (stoichiometry of binding, peptide-to-bromodomain ratio) [1]	Kd [1] [µM]	ATAD2 BRD KD [1]	Molecule	other results
–	–	No Binding	GKGGKacGLGKGGAKR [H4K8ac (res 4–17), histone H4 tail peptide, residues 4–17, acetylated at K8]	ATAD2 BRD KD ([1]; listed as H5K8ac (4–17)): complete lack of binding
–	–	No Binding	GKacGGKGLGKGGAKR [H4K5ac (res 4–17), histone H4 tail peptide, residues 4–17, acetylated at K5]	ATAD2 BRD KD ([1]; listed as H4K5ac (4–17)): complete lack of binding
1.082	303 ± 18.7	–	LGK(Ac)GGAK(Ac)RHRK-NH2 [H4K12acK16ac (res 10–20)]	–
–	–	No Binding	LGKGGAKacRHRK [H4K16ac (res 10–20), histone H4 tail peptide, residues 10–20, acetylated at K16]	–
–	–	No Binding	RKSTGGKAPRKacQ [H3K18ac (res 8–19), histone H3 tail peptide, residues 8–19, acetylated at K18]	–
–	–	No Binding	RKSTGGKacAPRKQ [H3K14ac (res 8–19), histone H3 tail peptide, residues 8–19, acetylated at K14]	ATAD2 BRD KD ([1]; listed as H3K14ac): did not observe any binding
0.938	33.2 ± 5.9	–	SGRGK(Ac)GGK(Ac)GL-NH2 [H4K5acK8ac (res 1–10)]	N-Value (stoichiometry of binding) [7]: 0.974; Kd [7]: 15.9 ± 2.5 µM; KD [2]: No binding; KD [3]: No binding; KD [4]: No binding
1.070	44.5 ± 3.3	–	SGRGK(Ac)GGKGL-NH2 [H4K5ac (res 1–10)]	N-Value (stoichiometry of binding) [7]: 1.021; Kd [7]: 10.1 ± 1.3 µM

Continued, molecule first:

Molecule	N-Value (stoichiometry of binding, peptide-to-bromodomain ratio) [1]	Kd [1] [µM]	ATAD2 BRD KD [1]	other results
CC(=O)NCCCC[C@H](NC(=O)CNC(=O)CN)C(=O)NCC(=O)N[C@@H](CC(C)C)C(=O)NCC(=O)N[C@@H](CCCCNC(C)=O)C(=O)NCC(=O)NCC(=O)N[C@@H](C)C(N)=O [H4K8acK12ac (res 6–15)]	1.169	392 ± 19.5	–	–
CC(=O)NCCCC[C@H](NC(=O)CNC(=O)[C@H](CC(C)C)NC(=O)CNC(=O)[C@H](CCCCN)NC(=O)CNC(=O)CNC(=O)[C@H](CCCCN)NC(=O)CN)C(=O)NCC(=O)NCC(=O)N[C@@H](C)C(=O)N[C@@H](CCCCN)C(=O)N[C@@H](CCCNC(=N)N)C(N)=O [H4K12ac (res 4–17)]	1.170	95.1 ± 13.1	–	KD [2]: No binding; KD [3]: No binding; KD [4]: No binding
ARTKQTARKSTG [H3 unmodified (res 1–12), unmodified histone H3 tail peptide, residues 1–12]	–	–	No Binding	–
ARTKQTARKacSTG [H3K9ac (res 1–12), histone H3 tail peptide, residues 1–12, acetylated at K9]	–	–	No Binding	–
ATAD2 bromodomain (from UniProt Q6PL18)	–	–	–	Kd [5]: 1130 µM; Kd [6]: 44.5 µM
GKGGKGLGKGGAKR [H4 unmodified (res 4–17), unmodified histone H4 tail peptide, residues 4–17; free N-terminus, amidated C-terminus]	–	–	No Binding	–
SGRGK(Ac)QGGKARA-NH2 [H2AK5ac (res 1–12)]	0.997	38.9 ± 5.9	–	–
SGRGKGGK(Ac)GL-NH2 [H4K8ac (res 1–10)]	1.144	1130 ± 122	–	–
ATAD2 bromodomain (protein) RLEEQEEDTFRELRIFLRNVTHRLAIDKRFRVFTKPVDPDEVPDYVTVIKQPMDLSSVISKIDLHKYLTVKDYLRDIDLICSNALEYNPDRDPGDRLIRHRACALRDTAYAIIKEELDE	–	–	–	Kd [8]: 33.2 µM; Kd [9]: 95.1 µM
